Experimental data published in patent US8546357B2, “Boron-containing small molecules for controlling ectoparasites” (priority 2011, dated 2013).

Tests used:
Assay type in all cases: in vivo
[1] = test system: American dog tick (Dermacentor variabilis) nymphs; experiment: Efficacy against nymphal-stage American dog ticks on rats, oral; conditions: oral point dose of between 5-25 mg/kg bodyweight, 48 hours after treatment
Method: Evaluations were conducted using a modified version of the assay as described in Gutierrez et al., J. Med. Entomol. 43(3): 526-532 (2006). This assay may be modified by simply using different tick species (the reference describes Amblyomma americanum ticks), such as Dermacentor variabilis or Rhipicephalus sanguineus ticks, as well as different life-stages (larval, nymphal or adult). Further, the reference describes using topical application methods, but oral, transdermal and subcutaneous injection routes of administration may be used.
In these studies, adult male or female rats, approximately 300 grams in size, were randomly assigned to a treatment group or a control (untreated negative control or fipronil positive control) group. Each group consisted of three (3) to five (5) rats. […] On Day 2, approximately forty-eight (48) hours after treatment, live and dead ticks were removed from animals and counted.
Live tick counts were transformed using the natural logarithm transformation plus one (Ln count+1); addition of one to each count served to adjust for counts that were zero. […] GM percent efficacy of treatments was calculated using the following formula:
Enantiomers were evaluated for activity against American dog tick (Dermacentor variabilis) nymphs on rats. […] On Day 2, approximately forty-eight (48) hours after treatment, live and dead ticks were removed from animals and counted. […]

[2] = test system: cat flea (Ctenocephalides felis); experiment: Therapeutic efficacy and speed of kill against adult cat flea infestations on dogs, oral; conditions: oral capsule 20 mg/kg
Method: The therapeutic efficacy and speed of kill of 7, administered orally at a point dose of 20 mg/kg bodyweight, was evaluated against adult cat flea (Ctenocephalides felis) infestations on dogs. Eighteen (18) male and female beagle dogs were allocated to one of six treatment groups (n=3 dogs per group). Groups 1, 2 and 3 were untreated, negative controls and groups 4, 5 and 6 received 7. On Day −1, all dogs were infested with approximately 100 unfed, adult fleas (approximately 50% male and 50% female). On Day 0, dogs in groups 4, 5 and 6 were orally administered gelatin capsules containing 7, at a point dose of 20 mg/kg (50% technical active, 47% microcrystalline cellulose and 3% croscarmellose sodium, w/w). At eight (8) hours post-treatment, fleas were counted and removed from dogs in groups 1 and 4; at twelve (12) hours post-treatment, fleas were counted and removed from dogs in groups 2 and 5; and at twenty-four (24) hours post-treatment, fleas were counted and removed from dogs in groups 3 and 6. GM percent efficacy of treatments against fleas was calculated using the following formula: […]

[3] = test system: cat flea (Ctenocephalides felis); experiment: Residual efficacy against adult cat flea infestations on dogs, oral; conditions: Day 32
Method: (§1) Immediately following removal of D. variabilis ticks on Day 30, dogs were co-infested with approximately 50 adult, unfed brown dog ticks (R. sanguineus, approximately 50% male and 50% female) and approximately 100 adult, unfed cat fleas (C. felis, approximately 50% male and 50% female). Ticks and fleas were counted and removed on Day 32 (approximately 48 hours after infestation). GM percent efficacy of treatments against both tick species and fleas was calculated using the following formula: […]
(§2) The therapeutic (knockdown) and residual efficacy of 7, administered orally at a point dose of 35 mg/kg bodyweight, was evaluated against adult tick (Dermacentor variabilis and Rhipicephalus sanguineus) and adult cat flea (Ctenocephalides felis) infestations on dogs. Twelve (12) male and female beagle dogs were allocated to either an untreated, negative control group or 7 group (n=6 dogs per group). Dogs were infested with approximately 50 unfed, adult D. variabilis ticks on Days −1, 5, 12, 19, 28, 35 and 42. On Day 0, dogs were orally administered gelatin capsules containing Compound 8194 (50% technical active, 47% microcrystalline cellulose and 3% croscarmellose sodium, w/w) at a point dose of 35 mg/kg. D. variabilis tick counts and classification were conducted on Day 1 (thumb count, approximately 24 hours after treatment) and Days 2, 7, 14, 21, 30, 37 and 44 (approximately 48 hours after treatment). Following removal of D. variabilis ticks on Day 30, all dogs were co-infested with approximately 50 unfed, adult brown dog ticks (R. sanguineus) and approximately 100 unfed, adult cat fleas (C. felis). Brown dog tick and cat flea counts were conducted on Day 32 (approximately 48 hours after infestation). GM percent efficacy of treatments against both tick species and fleas was calculated using the following formula: […]
(§3) The therapeutic (knockdown) and residual efficacy of S-enantiomer, 9, administered orally at a point dose of 25 mg/kg bodyweight, was evaluated against adult tick (Dermacentor variabilis and Rhipicephalus sanguineus) and adult cat flea (Ctenocephalides felis) infestations on dogs. Twelve (12) male and female beagle dogs were allocated to either an untreated, negative control group or 9 group (n=6 dogs per group). Dogs were infested with approximately 50 unfed, adult D. variabilis ticks on Days −1, 5, 12, 19, and 28. On Day 0, dogs were orally administered gelatin capsules containing 9 (50% technical active, 47% microcrystalline cellulose and 3% croscarmellose sodium, w/w) at a point dose of 25 mg/kg. D. variabilis tick counts and classification were conducted on Day 1 (thumb count, approximately 24 hours after treatment) and Days 2, 7, 14, 21 and 30 (approximately 48 hours after treatment). Following removal of D. variabilis ticks on Day 30, all dogs were co-infested with approximately 50 unfed, adult brown dog ticks (R. sanguineus) and approximately 100 unfed, adult cat fleas (C. felis). Brown dog tick and cat flea counts were conducted on Day 32 (approximately 48 hours after infestation). GM percent efficacy of treatments against both tick species and fleas was calculated using the following formula: […]

[4] = test system: brown dog tick (Rhipicephalus sanguineus); experiment: Residual efficacy against adult brown dog tick infestations on dogs, oral; conditions: Day 32
Method: as §1, §2, §3

[5] = Example 7, oral capsule 35 mg/kg

Cc1cc(C2=NOC(c3cc(Cl)c(Cl)c(Cl)c3)(C(F)(F)F)C2)ccc1C(=O)NCc1ccc2c(c1)B(O)OC2(C)C (centres unmarked) [Compound 7, N-((1-Hydroxy-3,3-dimethyl-1,3-dihydrobenzo[c][1,2]oxaborol-6-yl)methyl)-2-methyl-4-(5-(3,4,5-trichlorophenyl)-5-(trifluoromethyl)-4,5-dihydroisoxazol-3-yl)benzamide]
Maximum in vivo efficacy (% reduction in live tick counts) [1]: 7 (100%), 8 (100%),
% efficacy ([2]; 8 hours post-treatment): (90.4) %
Geometric mean group live flea counts ([2]; 8 hours post-treatment): 7.9
Geometric mean group live flea counts ([2]; 12 hours post-treatment): 0.0
% efficacy ([2]; 24 hours post-treatment): (100) %
Geometric mean group live flea counts ([2]; 24 hours post-treatment): 0.0
knockdown against an existing flea infestation ([2]; eight (8) hours of treatment): rapid knockdown
Residual efficacy [3, 5]: 100%
Geometric mean group live parasite counts ([3]; Table 2, oral capsule 25 mg/kg): 0.9
Residual efficacy [4, 5]: 98.7%
Geometric mean group live parasite counts ([4]; Table 2, oral capsule 25 mg/kg): 4.8
